Earlier results in patent publication US20090054331A1, “HIGH TEMPERATURE STABLE PEPTIDE FORMULATION” (priority 2007, published 2009).

Tests used:
[1] = in vivo
human dental pulp cells = details: in vitro
human dental defects = details: clinical trial

TDLQERGDNDISPFSGDGQPFKD [AC-100]
effect on proliferation, differentiation and mineralization of human osteoblasts (human osteoblasts): stimulate proliferation, differentiation, and mineralization
bone formation activities [1]: has shown bone formation activities in vivo
proliferation of human dental pulp cells (human dental pulp cells): stimulation of the proliferation
formation of new dentin (human dental defects): formation of new dentin
